This assay deals with T1, GLP-1R (Homo sapiens, UniProt P43220).
T1 construct: host or cells: CHO cells
Briefly: GLP-1R activation cAMP assay (Assay 1 or Assay 2). Type of assay: cell-based. Particulars: cAMP increase in CHO cells stably expressing GLP-1R; compounds run on one of the two cAMP assays. In a few lines:
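CHO cells stably expressing human GLP-1R were incubated 1 h in HBSS/20 mM HEPES/0.1% BSA, then exposed to 10-point agonist dilutions for 30 min at 37 °C. cAMP increase was measured with an HTRF Gs dynamic kit; EC50 from sigmoidal fit of response versus log concentration.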
(In general: Changes in cAMP serve as a functional read-out for many G protein-coupled receptors.)

EC50 data for 22 molecules are collected here from patent US20250312352A1, “GLP-1R MODULATING COMPOUNDS” (Gilead Sciences, Inc., priority 2021, published 2025).

What is called EC50 is the concentration at which the effect is half-maximal.

The structures appear in SMILES notation.

T1 sequence (P43220 24-463): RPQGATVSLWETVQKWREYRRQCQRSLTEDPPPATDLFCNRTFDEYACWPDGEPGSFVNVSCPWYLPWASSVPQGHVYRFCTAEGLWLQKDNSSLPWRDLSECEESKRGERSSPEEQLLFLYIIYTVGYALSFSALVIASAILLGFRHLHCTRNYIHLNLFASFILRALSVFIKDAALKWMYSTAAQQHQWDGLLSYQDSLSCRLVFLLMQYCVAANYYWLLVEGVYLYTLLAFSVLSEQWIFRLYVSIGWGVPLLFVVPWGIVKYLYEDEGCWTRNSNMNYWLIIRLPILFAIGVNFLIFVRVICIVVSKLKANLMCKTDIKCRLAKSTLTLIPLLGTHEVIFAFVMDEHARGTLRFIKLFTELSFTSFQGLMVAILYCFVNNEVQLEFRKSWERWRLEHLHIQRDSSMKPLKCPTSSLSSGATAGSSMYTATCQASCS

Consider `CC(F)(F)c1cnc(COc2cccc(-c3cc(F)c(Cc4nc5ccc(C(=O)O)cc5n4[C@@H]4COCC4(C)C)cc3F)n2)s1` [Example 425, (S)-2-(4-(6-((5-(1,1-difluoroethyl)thiazol-2-yl)methoxy)pyridin-2-yl)-2,5-difluorobenzyl)-1-(4,4-dimethyltetrahydrofuran-3-yl)-1H-benzo[d]imidazole-6-carboxylic acid], for which the EC50 turned out to be 0.535 nM. This counts as sub-nanomolar. Under `Cc1cc(Cc2nc3c(F)cc(C(=O)O)cc3n2[C@@H]2COCC2(C)C)c(Cl)cc1-c1ccc(F)c(OCc2ncc(C(C)(F)F)s2)n1` [Example 426, (S)-2-(2-chloro-4-(6-((5-(1,1-difluoroethyl)thiazol-2-yl)methoxy)-5-fluoropyridin-2-yl)-5-methylbenzyl)-1-(4,4-dimethyltetrahydrofuran-3-yl)-4-fluoro-1H-benzo[d]imidazole-6-carboxylic acid] stands 0.931 nM; under `Cc1cc(Cc2nc3ccc(C(=O)O)cc3n2[C@@H]2COCC2(C)C)c(Cl)cc1-c1ccc(F)c(OCc2ncc(C(C)(F)F)s2)n1` [Example 427, (S)-2-(2-chloro-4-(6-((5-(1,1-difluoroethyl)thiazol-2-yl)methoxy)-5-fluoropyridin-2-yl)-5-methylbenzyl)-1-(4,4-dimethyltetrahydrofuran-3-yl)-1H-benzo[d]imidazole-6-carboxylic acid], 1.42 nM; under `Cc1cc(Cc2nc3ccc(C(=O)O)cc3n2[C@@H]2COCC2(C)C)c(Cl)cc1-c1cccc(OCc2ncc(C(C)(F)F)s2)n1` [Example 428, (S)-2-(2-chloro-4-(6-((5-(1,1-difluoroethyl)thiazol-2-yl)methoxy)pyridin-2-yl)-5-methylbenzyl)-1-(4,4-dimethyltetrahydrofuran-3-yl)-1H-benzo[d]imidazole-6-carboxylic acid], 3.63 nM. `COc1nnc(COc2nc(-c3ccc(Cc4nc5c(F)cc(C(=O)O)cc5n4[C@@H]4COCC4(C)C)c(F)c3)ccc2F)s1` [Example 429, (S)-1-(4,4-dimethyltetrahydrofuran-3-yl)-4-fluoro-2-(2-fluoro-4-(5-fluoro-6-((5-methoxy-1,3,4-thiadiazol-2-yl)methoxy)pyridin-2-yl)benzyl)-1H-benzo[d]imidazole-6-carboxylic acid] returned an EC50 of 0.024 nM. For the molecule `CCOc1nnc(COc2cccc(-c3cc(F)c(Cc4nc5ccc(C(=O)O)cc5n4[C@@H]4COCC4(C)C)cc3F)n2)s1` [Example 430, (S)-1-(4,4-dimethyltetrahydrofuran-3-yl)-2-(4-(6-((5-ethoxy-1,3,4-thiadiazol-2-yl)methoxy)pyridin-2-yl)-2,5-difluorobenzyl)-1H-benzo[d]imidazole-6-carboxylic acid], a half-maximal response (EC50) required 0.039 nM. As to `CC1(C)COC[C@H]1n1c(Cc2cc(F)c(-c3cccc(OCc4nnc(C5CC5)s4)n3)cc2F)nc2ccc(C(=O)O)cc21` [Example 431, (S)-2-(4-(6-((5-cyclopropyl-1,3,4-thiadiazol-2-yl)methoxy)pyridin-2-yl)-2,5-difluorobenzyl)-1-(4,4-dimethyltetrahydrofuran-3-yl)-1H-benzo[d]imidazole-6-carboxylic acid], the EC50 turned out to be 0.195 nM. The molecule `CC1(C)COC[C@H]1n1c(Cc2cc(F)c(-c3cccc(OCc4nnc(C(F)F)s4)n3)cc2F)nc2ccc(C(=O)O)cc21` [Example 432, (S)-2-(4-(6-((5-(difluoromethyl)-1,3,4-thiadiazol-2-yl)methoxy)pyridin-2-yl)-2,5-difluorobenzyl)-1-(4,4-dimethyltetrahydrofuran-3-yl)-1H-benzo[d]imidazole-6-carboxylic acid] registered an EC50 of 0.093 nM. `CC1(C)COC[C@H]1n1c(Cc2cc(F)c(-c3cccc(OCc4nnc(C(F)(F)F)s4)n3)cc2F)nc2ccc(C(=O)O)cc21` [Example 433, (S)-2-(2,5-difluoro-4-(6-((5-(trifluoromethyl)-1,3,4-thiadiazol-2-yl)methoxy)pyridin-2-yl)benzyl)-1-(4,4-dimethyltetrahydrofuran-3-yl)-1H-benzo[d]imidazole-6-carboxylic acid] showed an EC50 of 0.413 nM. This EC50 lies about 4.4-fold higher than the previous one. Consider `COc1nnc(COc2cccc(-c3cc(Cl)c(Cc4nc5ccc(C(=O)O)cc5n4[C@@H]4COCC4(C)C)cc3F)n2)s1` [Example 434, (S)-2-(2-chloro-5-fluoro-4-(6-((5-methoxy-1,3,4-thiadiazol-2-yl)methoxy)pyridin-2-yl)benzyl)-1-(4,4-dimethyltetrahydrofuran-3-yl)-1H-benzo[d]imidazole-6-carboxylic acid], for which the EC50 worked out at 0.087 nM. This EC50 is about 4.7-fold lower than that of the molecule before. Under `CCOC(=O)N1Cc2ccc(COc3cccc(-c4cc(F)c(Cc5nc6ccc(C(=O)O)cc6n5C[C@@H]5CCO5)cc4F)n3)cc2C1` [Example 435, (S)-2-(4-(6-((2-(ethoxycarbonyl)isoindolin-5-yl)methoxy)pyridin-2-yl)-2,5-difluorobenzyl)-1-(oxetan-2-ylmethyl)-1H-benzo[d]imidazole-6-carboxylic acid] stands 0.427 nM; under `Cc1cc(Cc2nc3c(F)cc(C(=O)O)cc3n2[C@@H]2COCC2(C)C)c(F)cc1-c1ccc(F)c(OCc2ncc(C(F)(F)F)s2)n1` [Example 436, (S)-1-(4,4-dimethyltetrahydrofuran-3-yl)-4-fluoro-2-(2-fluoro-4-(5-fluoro-6-((5-(trifluoromethyl)thiazol-2-yl)methoxy)pyridin-2-yl)-5-methylbenzyl)-1H-benzo[d]imidazole-6-carboxylic acid], 0.367 nM. Under `CC1(C)COCC1n1c(Cc2cc(F)c(-c3cccc(OCc4ncc(C(F)(F)F)s4)n3)cc2F)nc2c(F)cc(C(=O)O)cc21` (stereo not shown) [Example 437, 2-(2,5-difluoro-4-(6-((5-(trifluoromethyl)thiazol-2-yl)methoxy)pyridin-2-yl)benzyl)-1-(4,4-dimethyltetrahydrofuran-3-yl)-4-fluoro-1H-benzo[d]imidazole-6-carboxylic acid] stands 0.105 nM; under `O=C(O)c1ccc2nc(Cc3cc(F)c(-c4cccc(OCc5ccc(C#Cc6cn[nH]c6)nc5)n4)cc3F)n(C[C@@H]3CCO3)c2c1` [Example 438, (S)-2-(4-(6-((6-((1H-pyrazol-4-yl)ethynyl)pyridin-3-yl)methoxy)pyridin-2-yl)-2,5-difluorobenzyl)-1-(oxetan-2-ylmethyl)-1H-benzo[d]imidazole-6-carboxylic acid], 0.335 nM.

In turn, `COc1nnc(COc2cccc(-c3cc(F)c(Cc4nc5c(F)cc(C(=O)O)cc5n4[C@@H]4COCC4(C)C)c(F)c3)n2)s1` [Example 439, (S)-2-(2,6-difluoro-4-(6-((5-methoxy-1,3,4-thiadiazol-2-yl)methoxy)pyridin-2-yl)benzyl)-1-(4,4-dimethyltetrahydrofuran-3-yl)-4-fluoro-1H-benzo[d]imidazole-6-carboxylic acid] yielded an EC50 of 0.397 nM.

In the case of `CC1(C)COC[C@H]1n1c(Cc2ccc(-c3cccc(OCc4ccc(C#N)cc4F)n3)cc2F)nc2c(F)cc(C(=O)O)cc21` [Example 440, (S)-2-(4-(6-((4-cyano-2-fluorobenzyl)oxy)pyridin-2-yl)-2-fluorobenzyl)-1-(4,4-dimethyltetrahydrofuran-3-yl)-4-fluoro-1H-benzo[d]imidazole-6-carboxylic acid], the response was half-maximal at 0.041 nM (EC50). Under `COc1nnc(COc2nc(-c3cc(Cl)c(Cc4nc5ccc(C(=O)O)cc5n4[C@@H]4COCC4(C)C)cc3C)ccc2F)s1` [Example 441, (S)-2-(2-chloro-4-(5-fluoro-6-((5-methoxy-1,3,4-thiadiazol-2-yl)methoxy)pyridin-2-yl)-5-methylbenzyl)-1-(4,4-dimethyltetrahydrofuran-3-yl)-1H-benzo[d]imidazole-6-carboxylic acid] stands 0.475 nM; under `COc1nnc(COc2cccc(-c3cc(Cl)c(Cc4nc5ccc(C(=O)O)cc5n4[C@@H]4COCC4(C)C)cc3C)n2)s1` [Example 442, (S)-2-(2-chloro-4-(6-((5-methoxy-1,3,4-thiadiazol-2-yl)methoxy)pyridin-2-yl)-5-methylbenzyl)-1-(4,4-dimethyltetrahydrofuran-3-yl)-1H-benzo[d]imidazole-6-carboxylic acid], 0.669 nM. In the case of `COc1nnc(COc2nc(-c3cc(Cl)c(Cc4nc5c(F)cc(C(=O)O)cc5n4C[C@@H]4CCO4)cc3C)ccc2F)s1` [Example 443, (S)-2-(2-chloro-4-(5-fluoro-6-((5-methoxy-1,3,4-thiadiazol-2-yl)methoxy)pyridin-2-yl)-5-methylbenzyl)-4-fluoro-1-(oxetan-2-ylmethyl)-1H-benzo[d]imidazole-6-carboxylic acid], the midpoint of the response, the EC50, lay at 3.45 nM. `CNC(=O)c1cc(Cl)c(COc2cccc(-c3cc(F)c(Cc4nc5ccc(C(=O)O)cc5n4C[C@@H]4CCO4)cc3F)c2)cn1` [Example 444, (S)-2-((3′-((4-chloro-6-(methylcarbamoyl)pyridin-3-yl)methoxy)-2,5-difluoro-[1,1′-biphenyl]-4-yl)methyl)-1-(oxetan-2-ylmethyl)-1H-benzo[d]imidazole-6-carboxylic acid] registered an EC50 of 0.433 nM. This EC50 lies about 8-fold lower than the previous one. Take `O=C(O)c1cc(Cl)c2nc(Cc3cc(F)c(-c4cccc(OCc5ncc(C(F)(F)F)s5)n4)cc3F)n(C[C@@H]3CCO3)c2c1` [Example 445, (S)-4-chloro-2-(2,5-difluoro-4-(6-((5-(trifluoromethyl)thiazol-2-yl)methoxy)pyridin-2-yl)benzyl)-1-(oxetan-2-ylmethyl)-1H-benzo[d]imidazole-6-carboxylic acid]: a half-maximal effect (EC50) was put at 0.101 nM. For `O=C(O)c1ccc2nc(Cc3c(F)cc(-c4ccc(F)c(OCc5ncc(C(F)(F)F)s5)n4)c(F)c3F)n(C[C@@H]3CCO3)c2c1` [Example 446, (S)-1-(oxetan-2-ylmethyl)-2-(2,3,6-trifluoro-4-(5-fluoro-6-((5-(trifluoromethyl)thiazol-2-yl)methoxy)pyridin-2-yl)benzyl)-1H-benzo[d]imidazole-6-carboxylic acid], the EC50 amounted to 0.17 nM.
